Here are results for 25 compounds from PubChem BioAssay (NCI).

Several values for one entry are separate records, joined by “and”; a condition that tells them apart may be missing. Equal values may be shown once.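 Values below derive from 48-hour exposures of cells grown in 96-well plates, with endpoints linearly interpolated between the two concentrations bracketing the appropriate inhibition level. GI50 is the concentration that inhibits growth by half. The concentration for full growth arrest is given as TGI.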 Where a SMILES comes first, the peptide text is derived from it. [ ]: non-standard residue; d: D form. The star is where a group is joined. ξ: configuration not given here. ξF = NC(Cc1ccccc1)C(=O)O; Cbz = O=C(OCc1ccccc1)*; Aib = CC(C)(N)C(=O)O

Among the test systems are NCI-H226 lung; RXF 393 renal; HOP-62 NSCLC; HCC-2998 colon; SNB-78 CNS; SR leukemia; MOLT-4 leukemia; K-562 leukemia; MDA-MB-435; MDA-MB-231 breast.
What all share (test): DTP human tumour cell line panel, 48 h

Broadly, the TGI is the concentration giving total growth inhibition. A lower TGI goes with greater sensitivity of the cells. With `CN(C)CCNC(=O)c1cc(Cl)cc2cc3ccccc3nc12`, the concentration for total growth inhibition (TGI) with NCI-H226 lung stood at 3.89 µM; with RXF 393 renal it was 2.81 µM; in the assay with HOP-62 NSCLC, 5.04 µM; with HCC-2998 colon, 3.15 µM; in the assay with SNB-78 CNS, 7.56 µM.
`CCOC(=O)CCC(C(=O)OCC)n1nc2ccc(Nc3c(C)[n+]([O-])c4cc(F)c(OCC)cc4[n+]3[O-])cc2n1` (stereo unspecified): the TGI with SR leukemia is greater than 100 µM; in the assay on MOLT-4 leukemia, greater than 100 µM; in the assay on NCI-H226 lung, greater than 100 µM; in the assay with K-562 leukemia, greater than 100 µM; in the assay with RXF 393 renal it was 32.5 µM; in the assay on HOP-62 NSCLC, 40.8 µM. The TGI in the assay on MDA-MB-435 and in the assay with HCC-2998 colon was greater than 100 µM throughout.
Take `OCC(O)CNc1ncnc2ccccc12` (stereo unspecified): the concentration for total growth inhibition (TGI) in the assay on MOLT-4 leukemia, in the assay on NCI-H226 lung, with MDA-MB-231 breast, in the assay on K-562 leukemia, with RXF 393 renal and in the assay on HOP-62 NSCLC was greater than 100 µM throughout. Besides, the TGI in the assay with MDA-MB-435 and with HCC-2998 colon was greater than 100 µM throughout.
The GI50 is the concentration at which growth is held to half of that of the control. As to `O=C1c2cccnc2C(=O)c2c1c(C(=O)OCCN1CCCCC1)c1ccccn21`, the GI50 in the assay on SR leukemia is 6.98 nM; with MOLT-4 leukemia, 162 nM; in the assay on NCI-H226 lung, 13.5 nM; with MDA-MB-231 breast, 731 nM; in the assay with K-562 leukemia, 48.4 nM; in the assay with RXF 393 renal it was 0.0615 µM. In addition, the GI50 in the assay with HOP-62 NSCLC is 5.54 nM; in the assay with MDA-MB-435, 80.4 nM; in the assay with HCC-2998 colon, 0.0788 µM. For the same compound, the total growth inhibition concentration (TGI) is 0.0828 µM with SR leukemia; 2.21 µM in the assay with MOLT-4 leukemia; 0.0867 µM with NCI-H226 lung; 12.6 µM in the assay on MDA-MB-231 breast; 1.67 µM with K-562 leukemia; 0.235 µM in the assay with RXF 393 renal. Besides, the TGI worked out at 0.0313 µM in the assay on HOP-62 NSCLC, 0.829 µM in the assay on MDA-MB-435 and 1.57 µM in the assay on HCC-2998 colon.
Take `O=C(CSCC(=O)N/N=C/c1ccccc1)N/N=C\c1ccccc1`: the TGI in the assay with MOLT-4 leukemia, in the assay with NCI-H226 lung, with MDA-MB-231 breast, in the assay on K-562 leukemia, in the assay with RXF 393 renal and in the assay with HOP-62 NSCLC was greater than 100 µM in each case. In the assay on MDA-MB-435, this compound displayed a TGI greater than 100 µM.
`CC1(CO)COS(=O)OC1` (stereo unspecified): the total growth inhibition concentration (TGI) in the assay with SR leukemia, in the assay with MOLT-4 leukemia, in the assay with NCI-H226 lung, in the assay with MDA-MB-231 breast, in the assay on RXF 393 renal and in the assay with MDA-MB-435 was greater than 100 µM in each case. Moreover, the concentration for total growth inhibition (TGI) in the assay on HCC-2998 colon is greater than 100 µM.
As for `CC(C)(C)OC(=O)N1C(OP(=O)(Oc2ccccc2)Oc2ccccc2)=CSc2ccccc21`, the total growth inhibition concentration (TGI) in the assay with SR leukemia was greater than 100 µM; with MOLT-4 leukemia it was 66 µM; with NCI-H226 lung it was greater than 100 µM; with MDA-MB-231 breast, 77.6 µM; in the assay on K-562 leukemia, greater than 100 µM; in the assay on RXF 393 renal, greater than 100 µM. For the same compound, the total growth inhibition concentration (TGI) in the assay with HOP-62 NSCLC, with MDA-MB-435 and in the assay with HCC-2998 colon was greater than 100 µM in each case.
With `OC[C@H]1NC[C@@H](O)[C@@H](O)[C@H]1O`, the TGI in the assay with SR leukemia, with MOLT-4 leukemia, in the assay on NCI-H226 lung, in the assay with MDA-MB-231 breast, in the assay on K-562 leukemia and in the assay on RXF 393 renal was greater than 100 µM throughout. For the same compound, the TGI in the assay with HOP-62 NSCLC, in the assay on MDA-MB-435 and with HCC-2998 colon was greater than 100 µM in each case.
For `CCOC(=O)CNC(=O)C(Cc1ccccc1)NC(=O)C(C)(C)NC(=O)OCc1ccccc1` (stereo unspecified) (Cbz-[Aib]-[ξF]-Gly-OEt), the TGI in the assay with SR leukemia, with MOLT-4 leukemia, in the assay with MDA-MB-231 breast, in the assay with K-562 leukemia, in the assay with HOP-62 NSCLC and in the assay on MDA-MB-435 was greater than 100 µM each time. The TGI with HCC-2998 colon is greater than 100 µM.
Turning to `CC(C)CCCC(C)[C@H]1CC[C@H]2n3c(nc4ccccc43)CCC[C@]12C` (stereo partly specified), the total growth inhibition concentration (TGI) in the assay on SR leukemia amounted to 37.2 µM; in the assay on MOLT-4 leukemia, 35.9 µM; in the assay on NCI-H226 lung, 33.5 µM; in the assay with MDA-MB-231 breast, 33 µM; with K-562 leukemia it was 36.5 µM; in the assay on RXF 393 renal it was 33.5 µM. Besides, the results for the TGI in the assay on HOP-62 NSCLC and in the assay with MDA-MB-435 were 40.6 µM and 38.6 µM, respectively.
With `Nc1[nH]c(=S)nc2nc3c(c(-c4ccccc4)c12)CCCC3`, the TGI in the assay with SR leukemia, in the assay with MOLT-4 leukemia, with MDA-MB-231 breast, in the assay with K-562 leukemia, in the assay with HOP-62 NSCLC and with MDA-MB-435 was greater than 100 µM throughout.
For the compound `CN(Cc1cn(O)c2nc(=N)nc(N)c-2n1)c1ccc(C(=O)NC23CC4CC(CC(C4)C2)C3)cc1`, the TGI in the assay on SR leukemia was greater than 100 µM; in the assay on MOLT-4 leukemia, greater than 100 µM; in the assay with NCI-H226 lung it was greater than 100 µM; with MDA-MB-231 breast it was greater than 100 µM; in the assay with K-562 leukemia it was greater than 100 µM; in the assay with RXF 393 renal it was 94.9 µM. The TGI in the assay with HOP-62 NSCLC and in the assay with MDA-MB-435 was greater than 100 µM each time.
On to `COc1ccccc1CC(C)N` (stereo unspecified), for which the TGI in the assay on NCI-H226 lung, in the assay with K-562 leukemia, in the assay with RXF 393 renal, with HOP-62 NSCLC, in the assay with HCC-2998 colon and with SNB-78 CNS was greater than 100 µM each time.
In the case of `NC(CCOCCP(=O)(O)CCC1C=CC=CC1)C(=O)O` (stereo unspecified), the TGI with SR leukemia, in the assay with MOLT-4 leukemia, in the assay with MDA-MB-231 breast, with K-562 leukemia, with RXF 393 renal and with MDA-MB-435 was greater than 100 µM in each case. In addition, in the assay on HCC-2998 colon, the TGI was greater than 100 µM.
As to `S=c1c2[nH]cnc2ncn1CCSC1=NC=NC2=NC=NC21` (stereo unspecified), the TGI with SR leukemia, in the assay with MOLT-4 leukemia, in the assay on NCI-H226 lung, with MDA-MB-231 breast, with K-562 leukemia and in the assay on RXF 393 renal was greater than 100 µM in each case. For the same compound, the concentration for total growth inhibition (TGI) in the assay with HOP-62 NSCLC, in the assay with MDA-MB-435, with HCC-2998 colon and in the assay with SNB-78 CNS was greater than 100 µM in each case.
For `Nc1ccc(O)c2c1C(=O)c1c(N)ccc(O)c1C2=O`, the TGI in the assay on MOLT-4 leukemia, in the assay on K-562 leukemia, in the assay with RXF 393 renal, with HOP-62 NSCLC, in the assay on HCC-2998 colon and in the assay on SNB-78 CNS was greater than 100 µM throughout.
Regarding `CN(CC(=O)O)Cc1c(O)c(Cl)cc(Cl)c1Cl`, the TGI is 90.9 µM with SR leukemia; 92.1 µM with NCI-H226 lung; greater than 100 µM in the assay on MDA-MB-231 breast; greater than 100 µM in the assay on RXF 393 renal; greater than 100 µM in the assay on HOP-62 NSCLC; greater than 100 µM in the assay on MDA-MB-435.
Consider `Cc1cc2c(c(O)c1-c1c(C)cc(O)c3c1C(=O)C=CC3=O)C(=O)C=CC2=O`, for which the concentration for total growth inhibition (TGI) in the assay on SR leukemia was determined as 0.265 µM; with MOLT-4 leukemia, 0.375 µM; in the assay with NCI-H226 lung, 73.5 µM; in the assay with MDA-MB-231 breast, 4.88 µM; in the assay on K-562 leukemia, 0.23 µM; with RXF 393 renal, 2.5 µM. In addition, the concentration for total growth inhibition (TGI) in the assay on HOP-62 NSCLC worked out at 56.5 µM; in the assay on HCC-2998 colon, 10.1 µM.
For the compound `CCN(CC)CC[n+]1ccc2c(C)c3[nH]c4ccc(O)cc4c3c(C)c2c1`, the TGI with SR leukemia is 1.74 µM; in the assay with MOLT-4 leukemia, 11 µM and 12.4 µM; in the assay with NCI-H226 lung, 6.64 µM and 3.58 µM; in the assay on MDA-MB-231 breast, 36.6 µM; in the assay with K-562 leukemia, 42.5 µM and 40.2 µM; in the assay on RXF 393 renal it was 56.5 µM and 57.2 µM. Also, the TGI is 13.4 µM and 18.9 µM in the assay on HOP-62 NSCLC; 23.1 µM in the assay on MDA-MB-435; 22.6 µM and 85.4 µM in the assay with HCC-2998 colon; 44.1 µM and 59.5 µM in the assay with SNB-78 CNS. Moreover, the GI50 in the assay on MOLT-4 leukemia was 181 nM; in the assay on NCI-H226 lung, 631 nM; in the assay with RXF 393 renal it was 13.9 µM; in the assay on HCC-2998 colon, 6.94 µM; with SNB-78 CNS, 5.71 µM.
As for `O=C(NC(Cc1ccc(Br)cc1)C(=O)O)c1ccc(I)cc1` (stereo unspecified), the TGI in the assay on MOLT-4 leukemia, in the assay with NCI-H226 lung, in the assay on K-562 leukemia, in the assay on RXF 393 renal, in the assay on HOP-62 NSCLC and in the assay with HCC-2998 colon was greater than 100 µM each time. This compound showed a total growth inhibition concentration (TGI) with SNB-78 CNS greater than 100 µM.
On to `CSc1nc(CO)c(CO)n1C`, for which the TGI with MOLT-4 leukemia, with NCI-H226 lung, in the assay with K-562 leukemia, with RXF 393 renal, with HOP-62 NSCLC and with HCC-2998 colon was greater than 100 µM each time. The TGI with SNB-78 CNS is greater than 100 µM.
For the compound `CNC1Cc2c[nH]c3cccc(c23)C12C=C(C)C(=O)O2` (stereo unspecified), the total growth inhibition concentration (TGI) in the assay on SR leukemia, in the assay on MOLT-4 leukemia, with NCI-H226 lung, in the assay on MDA-MB-231 breast, with K-562 leukemia and with RXF 393 renal was greater than 100 µM each time. For the same compound, the TGI in the assay with HOP-62 NSCLC, with MDA-MB-435 and in the assay on HCC-2998 colon was greater than 100 µM each time.
For `CC1C(=O)CC(c2cccs2)N(N=O)C1c1cccs1` (stereo unspecified), the TGI in the assay with MOLT-4 leukemia is 73.7 µM; with NCI-H226 lung it was greater than 100 µM; with K-562 leukemia it was 27.6 µM; with RXF 393 renal, 81.1 µM; in the assay on HOP-62 NSCLC, greater than 100 µM; with HCC-2998 colon, greater than 100 µM. Besides, the TGI with SNB-78 CNS is greater than 85.2 µM.
With `Clc1cc(Cl)c2cc3cccc[n+]3cc2c1Cl`, the TGI is 32.9 µM in the assay on SR leukemia; 31.3 µM in the assay with MOLT-4 leukemia; 43.6 µM with NCI-H226 lung; 48.9 µM in the assay on MDA-MB-231 breast; 45.4 µM in the assay on K-562 leukemia; 31.6 µM in the assay with HOP-62 NSCLC. Further, the TGI in the assay with MDA-MB-435 was 32.7 µM; with HCC-2998 colon, 36.6 µM.
On to `CCCCCCCCCCCCCC1=C(O)C(=O)C(CC2=C(O)C(=O)C(CCCCCCCCCCCCC)=C(O)C2=O)=C(O)C1=O`, for which the TGI in the assay with SR leukemia was greater than 100 µM; with NCI-H226 lung, greater than 100 µM; in the assay on MDA-MB-231 breast, greater than 100 µM; in the assay on K-562 leukemia, greater than 100 µM; in the assay with RXF 393 renal it was 32.2 µM.
